Assay results published in ChEMBL document CHEMBL1201862, “PubChem BioAssay data set” (2004).
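Briefly, cells in 96-well plates were exposed to five compound concentrations for 48 h, and endpoints were estimated by linear interpolation. GI50 marks 50% less growth.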 The source made the active and inactive calls. Cut-off read from the data, not from the text of the source: active = GI50 up to about 1.1 µM and inactive = higher.

How the values were obtained:
Assay in all cases: NCI-60 cell line screen, 48 h
UO-31 = test system: UO-31
NCI-H226 = test system: NCI-H226
IGROV-1 = test system: IGROV-1
MDA-N = test system: MDA-N
M14 = test system: M14
TK-10 = test system: TK-10
BT-549 = test system: BT-549
MOLT-4 = test system: MOLT-4
OVCAR-8 = test system: OVCAR-8
RPMI-8226 = test system: RPMI-8226
MDA-MB-435 = test system: MDA-MB-435
SW-620 = test system: SW-620
UACC-62 = test system: UACC-62
EKVX = test system: EKVX
Hs-578T = test system: Hs-578T
HL-60 = test system: HL-60
ACHN = test system: ACHN
UACC-257 = test system: UACC-257
SR = test system: SR
CAKI-1 = test system: CAKI-1

Compound | GI50 (UO-31) | GI50 (NCI-H226) | GI50 (IGROV-1) | GI50 (MDA-N) | GI50 (M14) | GI50 (TK-10) | GI50 (BT-549) | GI50 (MOLT-4) | GI50 (OVCAR-8) | GI50 (RPMI-8226) | GI50 (MDA-MB-435) | GI50 (SW-620) | GI50 (UACC-62) | GI50 (EKVX) | GI50 (Hs-578T) | GI50 (HL-60) | GI50 (ACHN) | GI50 (UACC-257) | GI50 (SR) | GI50 (CAKI-1)
C1CCNCC1.Oc1ncnc2[nH]cc(CN3CCCCC3)c12 | 85.3 µM (inactive) | > 100 µM (inactive) | > 100 µM (inactive) | 30.4 µM (inactive) | > 100 µM (inactive) | 46 µM (inactive) | > 100 µM (inactive) | 15.2 µM (inactive) | > 100 µM (inactive) | 22 µM (inactive) | > 100 µM (inactive) | 38 µM (inactive) | 83.9 µM (inactive) | > 100 µM (inactive) | > 100 µM (inactive) | 19.8 µM (inactive) | 98.4 µM (inactive) | 21.5 µM (inactive) | 37.7 µM (inactive) | > 100 µM (inactive)
CCN1CCC(O)(/C=C/c2ccc(C(C)C)cc2)C(C(=O)/C=C/c2ccc(C(C)C)cc2)C1 (stereo not drawn) | 2.96 µM (inactive) | 2.82 µM (inactive) | 2.05 µM (inactive) | 2.37 µM (inactive) | 3.1 µM (inactive) | 2.34 µM (inactive) | 4.15 µM (inactive) | 1.59 µM (inactive) | 1.96 µM (inactive) | 0.697 µM (active) | 2.96 µM (inactive) | 2.67 µM (inactive) | 4.15 µM (inactive) | 2.22 µM (inactive) | 2.31 µM (inactive) | 2.98 µM (inactive) | 1.75 µM (inactive) | 6.67 µM (inactive) | 1.38 µM (inactive) | 4.34 µM (inactive)
O=C1C2CCN(CC2)C1(CO)CO | 16.1 µM (inactive) | 28.1 µM (inactive) | > 89.5 µM (inactive) | 39.1 µM (inactive) | 18.3 µM (inactive) | 17.3 µM (inactive) | 19.8 µM (inactive) | 7.01 µM (inactive) | 28.1 µM (inactive) | 17.8 µM (inactive) | 61.5 µM (inactive) | 18.2 µM (inactive) | 25.1 µM (inactive) | 49.7 µM (inactive) | 31.3 µM (inactive) | 38.7 µM (inactive) | 17.9 µM (inactive) | 18.6 µM (inactive) | 20 µM (inactive) | 19.2 µM (inactive)
COc1cc(C2c3cc4c(cc3OC(Nc3ccccc3)C2C)OCO4)cc(OC)c1OC (stereo not drawn) | 2.09 µM (inactive) | 1.13 µM (inactive) | 1.41 µM (inactive) | 0.161 µM (active) | 0.381 µM (active) | 23.6 µM (inactive) | 4.36 µM (inactive) | 0.416 µM (active) | 1.44 µM (inactive) | 0.608 µM (active) | 0.139 µM (active) | 0.473 µM (active) | 0.621 µM (active) | 1.31 µM (inactive) | 0.479 µM (active) | 0.275 µM (active) | 1.39 µM (inactive) | 2.82 µM (inactive) | 0.828 µM (active) | 0.555 µM (active)
O=C1c2cc(O)c(O)cc2O[C@H](c2ccc(O)c(O)c2)[C@H]1O | > 100 µM (inactive) | 85.1 µM (inactive) | > 100 µM (inactive) | > 100 µM (inactive) | > 100 µM (inactive) | > 100 µM (inactive) | > 100 µM (inactive) | > 100 µM (inactive) | > 100 µM (inactive) | > 100 µM (inactive) | > 100 µM (inactive) | > 100 µM (inactive) | > 100 µM (inactive) | > 100 µM (inactive) | > 100 µM (inactive) | > 100 µM (inactive) | > 100 µM (inactive) | 98.9 µM (inactive) | > 100 µM (inactive) | > 100 µM (inactive)
CCCCCCOc1ccc(C(=O)N(C)O)cc1 | 9.48 µM (inactive) | 13.5 µM (inactive) | 11.5 µM (inactive) | 27.6 µM (inactive) | 12.6 µM (inactive) | 46.3 µM (inactive) | 33.7 µM (inactive) | 4.97 µM (inactive) | 11.7 µM (inactive) | 7.55 µM (inactive) | 23.4 µM (inactive) | 10.2 µM (inactive) | 16.1 µM (inactive) | 20.3 µM (inactive) | 65.2 µM (inactive) | 4.01 µM (inactive) | 6.01 µM (inactive) | 36.6 µM (inactive) | 6.35 µM (inactive) | 15.6 µM (inactive)
CC(=O)NC1=C(C)C(=O)c2c(nc3n2CC[C@H]3OC(C)=O)C1=O | 3.01 µM (inactive) | 9.77 µM (inactive) | 3.07 µM (inactive) | 0.628 µM (active) | 2.06 µM (inactive) | 8.13 µM (inactive) | 1.59 µM (inactive) | 0.243 µM (active) | 1.55 µM (inactive) | 1.36 µM (inactive) | 0.774 µM (active) | 1.53 µM (inactive) | 1.69 µM (inactive) | 5.25 µM (inactive) | 3.21 µM (inactive) | 0.834 µM (active) | 2.78 µM (inactive) | 1.01 µM (active) | 0.361 µM (active) | 3.98 µM (inactive)
CCOP(=O)(OCC)C(Cc1cn(S(=O)(=O)c2ccc(C)cc2)cn1)C(=O)O (stereo not drawn) | > 100 µM (inactive) | > 100 µM (inactive) | > 100 µM (inactive) | > 100 µM (inactive) | > 100 µM (inactive) | > 100 µM (inactive) | > 100 µM (inactive) | > 100 µM (inactive) | > 100 µM (inactive) | > 100 µM (inactive) | > 100 µM (inactive) | > 100 µM (inactive) | > 100 µM (inactive) | > 100 µM (inactive) | > 100 µM (inactive) | > 100 µM (inactive) | > 100 µM (inactive) |  | > 100 µM (inactive) | > 100 µM (inactive)
CC(=O)NNc1nc(C)c(C(/C=C/c2ccc3c(c2)OCO3)=N/Nc2ccccc2)s1 | > 100 µM (inactive) | > 100 µM (inactive) | > 100 µM (inactive) | > 100 µM (inactive) | > 100 µM (inactive) | > 100 µM (inactive) | > 100 µM (inactive) | > 100 µM (inactive) | > 100 µM (inactive) | > 100 µM (inactive) | > 100 µM (inactive) | > 100 µM (inactive) | > 100 µM (inactive) | > 100 µM (inactive) | > 100 µM (inactive) | > 100 µM (inactive) | > 100 µM (inactive) | > 100 µM (inactive) | > 100 µM (inactive) | > 100 µM (inactive)
C=C1C(=O)OC2C1C(OC(=O)/C(C)=C/C)CC(O)(CCl)C1C(OC(C)=O)C=C(C)C21O (stereo not drawn) | 18.6 µM (inactive) | 30.3 µM (inactive) | 14.4 µM (inactive) | 16.8 µM (inactive) | 12.6 µM (inactive) | 13.8 µM (inactive) | 8.85 µM (inactive) | 3.69 µM (inactive) | 8.45 µM (inactive) | 7.01 µM (inactive) | 20.3 µM (inactive) | 3.98 µM (inactive) | 14.3 µM (inactive) | 9.75 µM (inactive) | 61.9 µM (inactive) | 1.89 µM (inactive) | 8.97 µM (inactive) | 16.5 µM (inactive) | 3.8 µM (inactive) | 7.11 µM (inactive)
O=C(OCc1ccccc1)N(CCCCN(CCCNC(=O)C(F)(F)F)C(=O)OCc1ccccc1)CCCNC(=O)C(F)(F)F | 3.56 µM (inactive) | > 100 µM (inactive) | > 100 µM (inactive) | > 100 µM (inactive) | > 100 µM (inactive) | > 100 µM (inactive) | > 100 µM (inactive) | 8.87 µM (inactive) | > 100 µM (inactive) | > 100 µM (inactive) | > 100 µM (inactive) | > 100 µM (inactive) | > 100 µM (inactive) | > 100 µM (inactive) | > 100 µM (inactive) | > 100 µM (inactive) | 23.9 µM (inactive) | > 100 µM (inactive) | > 100 µM (inactive) | 1.56 µM (inactive)
CCc1[nH]c(=O)nc(N)c1-c1ccc(N2CCCCC2)c([N+](=O)[O-])c1 | > 100 µM (inactive) | > 100 µM (inactive) | > 100 µM (inactive) | > 100 µM (inactive) | > 100 µM (inactive) | > 100 µM (inactive) | > 100 µM (inactive) | > 100 µM (inactive) | > 100 µM (inactive) | > 100 µM (inactive) | > 100 µM (inactive) | > 100 µM (inactive) | > 100 µM (inactive) | > 100 µM (inactive) | 53.2 µM (inactive) | 88.7 µM (inactive) | > 100 µM (inactive) | > 100 µM (inactive) | > 100 µM (inactive) | > 100 µM (inactive)
CC(=O)Nc1ccc(NS(=O)(=O)c2ccc3nc(C)n(NS(=O)(=O)c4ccc(NC(C)=O)cc4)c(=O)c3c2)cc1 | > 100 µM (inactive) | > 100 µM (inactive) | > 100 µM (inactive) | > 100 µM (inactive) | > 100 µM (inactive) | > 100 µM (inactive) | > 100 µM (inactive) | > 100 µM (inactive) | > 100 µM (inactive) | > 100 µM (inactive) | > 100 µM (inactive) | > 100 µM (inactive) | > 100 µM (inactive) | > 100 µM (inactive) | > 100 µM (inactive) | > 100 µM (inactive) | > 100 µM (inactive) | > 100 µM (inactive) | > 100 µM (inactive) | > 100 µM (inactive)
O=S(=O)(O)c1cc(O)c(/N=N/c2ccc3ccccc3c2O)c2ccccc12 [ERIOCHROME BLUE BLACK B] | 17.1 µM (inactive) | 16.1 µM (inactive) | 3.59 µM (inactive) | 5.06 µM (inactive) | 13.3 µM (inactive) | 66.2 µM (inactive) | 37.3 µM (inactive) | 18 µM (inactive) |  | 41.7 µM (inactive) | 1.97 µM (inactive) | 33.9 µM (inactive) | 14.8 µM (inactive) | 12.9 µM (inactive) | 40.8 µM (inactive) | 6.17 µM (inactive) | 24.6 µM (inactive) | 25.8 µM (inactive) | 7.41 µM (inactive) | 27 µM (inactive)
